Experimental data as given in the NIST ThermoML archive (doi:10.1021/je800188a).
± gives the expanded uncertainty stated by the source.

Experiment: mean ionic activity coefficient (dimensionless); mn = molality of the nth substance listed, in mol/kg
Settings: 298.15 K, 101 kPa, Liquid

Structure (SMILES): [Cl-].[K+] [potassium chloride] + O
- mean ionic activity coefficient (m1 = 0.2): 0.719 ± 0.05
- mean ionic activity coefficient (m1 = 0.4): 0.669 ± 0.05
- mean ionic activity coefficient (m1 = 0.6): 0.641 ± 0.05
- mean ionic activity coefficient (m1 = 0.8): 0.623 ± 0.05
- mean ionic activity coefficient (m1 = 1): 0.61 ± 0.05
- mean ionic activity coefficient (m1 = 1.2): 0.601 ± 0.05
- mean ionic activity coefficient (m1 = 1.4): 0.593 ± 0.05
- mean ionic activity coefficient (m1 = 1.6): 0.588 ± 0.05
- mean ionic activity coefficient (m1 = 1.8): 0.584 ± 0.05
- mean ionic activity coefficient (m1 = 2): 0.58 ± 0.05
- mean ionic activity coefficient (m1 = 2.2): 0.578 ± 0.05
- mean ionic activity coefficient (m1 = 2.4): 0.576 ± 0.05
- mean ionic activity coefficient (m1 = 2.6): 0.575 ± 0.05
- mean ionic activity coefficient (m1 = 2.8): 0.575 ± 0.05
- mean ionic activity coefficient (m1 = 3): 0.575 ± 0.05
- mean ionic activity coefficient (m1 = 3.2): 0.576 ± 0.05
- mean ionic activity coefficient (m1 = 3.4): 0.576 ± 0.05
- mean ionic activity coefficient (m1 = 3.6): 0.578 ± 0.05
- mean ionic activity coefficient (m1 = 3.8): 0.58 ± 0.05
- mean ionic activity coefficient (m1 = 4): 0.582 ± 0.05
- mean ionic activity coefficient (m1 = 4.2): 0.584 ± 0.05
- mean ionic activity coefficient (m1 = 4.4): 0.587 ± 0.05
- mean ionic activity coefficient (m1 = 4.6): 0.59 ± 0.05
- mean ionic activity coefficient (m1 = 4.8): 0.593 ± 0.05
- mean ionic activity coefficient (m1 = 4.803): 0.593 ± 0.05

Structure (SMILES): [Cl-].[Na+] [sodium chloride] + O
- mean ionic activity coefficient (m1 = 0.2): 0.734 ± 0.05
- mean ionic activity coefficient (m1 = 0.4): 0.694 ± 0.05
- mean ionic activity coefficient (m1 = 0.6): 0.676 ± 0.05
- mean ionic activity coefficient (m1 = 0.8): 0.666 ± 0.05
- mean ionic activity coefficient (m1 = 1): 0.662 ± 0.05
- mean ionic activity coefficient (m1 = 1.2): 0.66 ± 0.05
- mean ionic activity coefficient (m1 = 1.4): 0.662 ± 0.05
- mean ionic activity coefficient (m1 = 1.6): 0.665 ± 0.05
- mean ionic activity coefficient (m1 = 1.8): 0.669 ± 0.05
- mean ionic activity coefficient (m1 = 2): 0.675 ± 0.05
- mean ionic activity coefficient (m1 = 2.2): 0.682 ± 0.05
- mean ionic activity coefficient (m1 = 2.4): 0.69 ± 0.05
- mean ionic activity coefficient (m1 = 2.6): 0.699 ± 0.05
- mean ionic activity coefficient (m1 = 2.8): 0.709 ± 0.05
- mean ionic activity coefficient (m1 = 3): 0.72 ± 0.05
- mean ionic activity coefficient (m1 = 3.2): 0.732 ± 0.05
- mean ionic activity coefficient (m1 = 3.4): 0.744 ± 0.05
- mean ionic activity coefficient (m1 = 3.6): 0.758 ± 0.05
- mean ionic activity coefficient (m1 = 3.8): 0.772 ± 0.05
- mean ionic activity coefficient (m1 = 4): 0.787 ± 0.05
- mean ionic activity coefficient (m1 = 4.2): 0.803 ± 0.05
- mean ionic activity coefficient (m1 = 4.4): 0.82 ± 0.05
- mean ionic activity coefficient (m1 = 4.6): 0.838 ± 0.05
- mean ionic activity coefficient (m1 = 4.8): 0.857 ± 0.05
- mean ionic activity coefficient (m1 = 5): 0.877 ± 0.05
- mean ionic activity coefficient (m1 = 5.2): 0.898 ± 0.05
- mean ionic activity coefficient (m1 = 5.4): 0.92 ± 0.05
- mean ionic activity coefficient (m1 = 5.6): 0.943 ± 0.05
- mean ionic activity coefficient (m1 = 5.8): 0.968 ± 0.05
- mean ionic activity coefficient (m1 = 6): 0.993 ± 0.05
- mean ionic activity coefficient (m1 = 6.144): 1.01 ± 0.051
